{
  "source": "paper PMC12266748",
  "about": "“A Xanthine Derivative With Novel Heat Shock Protein 90‐Alpha Inhibitory and Senolytic Properties” (Aging Cell, 2025)",
  "key": {"MCF7 cells": {"system": "MCF7 cells", "experiment": "Immunofluorescence of Cytochrome C / mitochondria colocalization in senescent MCF7", "assay_type": "cell-based, Homo sapiens", "details": "MCF7, TAM 10 µM 96 h, then 72 h K5 10 µM or Dasatinib 1 µM", "procedure": "Treated/untreated senescent IMR90 and MCF7 cells were fixed, permeabilized, and stained following suppliers' recommendations. Images were acquired using an Olympus IX83 research inverted microscope (IF) and a phase microscopy Nikon ECLIPSE Ei R (IHC) at 40× MAG.\nImmunofluorescence staining. Treated/untreated IMR90 and MCF7 cells were cultured in LabTek II chamber slides (Nunc, Biosigma). At the final time point, cells were stained with 500 nM MitoTracker Orange (Thermo Fisher Scientific) for 30 min at 37°C and then fixed in 4% PFA (Merck) for 10 min, RT, and permeabilized with 0.1% Triton solution (Merck) for 30 min at RT. Samples were blocked in 5% BSA for 90 min, incubated overnight at 4°C with primary antibody against Cytochrome C (1:50, RbMAb, Abcam), and 1h at RT with secondary antibody Alexa Fluor 488 goat anti-Rb (1:200, Thermo Fisher Scientific). Nuclei were stained with DAPI (Cell Signaling) for 10 min at RT, and ProLong Glass Antifade Mountant (Thermo Fisher Scientific) was used to seal coverslips. Images were acquired using an Olympus IX83 research inverted microscope at 40X magnifications."}, "HUVEC": {"system": "HUVEC", "experiment": "MTT viability of Doxorubicin-induced senescent and non-senescent HUVEC", "assay_type": "cell-based, Human", "details": "for EC50: Homo sapiens", "description": "(§1) IMR90 and WI38 lung fibroblasts were purchased from ECACC‐Merck. Human bone marrow (BM)‐derived mesenchymal stromal cells (MSCs) were purchased from Lonza. Human umbilical vein endothelial cells (HUVECs) are primary cells obtained from a pool of donors purchased from Clonetics (Lonza). Murine ear fibroblasts (MearFs) were obtained from C57BL/6J mice maintained in the INRCA “Specific Pathogen Free” (SPF) animal facility. MCF7 breast cancer cells were purchased from ATCC. For dose–response curves, IMR90 and WI38 were induced to senescence through replicative passages; MSCs, HUVECs, and MearFs senescence was induced with Doxorubicin; MCF7 senescence was induced with 4‐Hydroxytamoxifen (Lee et al. [2014]). The EC50 was calculated using GraphPad Prism 10 software. All treatment specifications are reported in the extended section.\n(§2) Cell viability was determined using an MTT assay. Absorbance was measured using a NB‐12‐0035 Microplate Reader (NeoBiotech Co.). Data are expressed as a percentage of viability compared with untreated cells.\nHuman umbilical vein endothelial cells (HUVECs) are primary cells obtained from a pool of donors purchased from Clonetics (Lonza, Stein, Switzerland). HUVECs were cultured in endothelial basal medium (EBM-2, CC-3156, Lonza) supplemented with SingleQuot Bullet Kit (CC-4176, Lonza) containing 0.1% human recombinant epidermal growth factor (rh-EGF), 0.04% hydrocortisone, 0.1% vascular endothelial growth factor (VEGF), 0.4% human recombinant fibroblast growth factor (rh-FGF-B), 0.1% insulin-like growth factor-1 with the substitution of arginine for glutamic acid at position 3 (R3-IGF-1), 0.1% ascorbic acid, 0.1% heparin, 0.1% gentamicin and amphotericin-B (GA-1000), and 2% fetal bovine serum (FBS). The cells were seeded at a density of 5000/cm^2 in T75 flasks (Corning Costar, Sigma Aldrich, St. Louis, MO, USA).\nMurine ear fibroblasts (MearFs) were obtained from C57BL/6J mice maintained in the INRCA \"Specific Pathogen Free\" (SPF) animal facility. The ear biopsies (2 mm radius) were obtained with a dedicated puncher, and cells recovered as previously described (Malavolta et al. 2022). Cells were seeded at a density of 5000/cm^2 in T75 flasks (Corning Costar, Sigma Aldrich, St. Louis, MO, USA) and maintained at 37°C in a 95% humidified incubator with 5% CO2. […]\n(§3) Cell viability assay. Cell viability has been determined with MTT (3-(4,5-dimethylthiazol-2-yl)-2, 5-diphenyltetrazolium bromide) assay. […] Insoluble formazan salts produced were solubilized with DMSO incubation, and then absorbance was measured at 540 nm using a microplate reader (NB-12-0035 Microplate Reader, NeoBiotech Co., Seoul, Republic of Korea). Data are expressed as a percentage of viability compared with untreated cells (the control group has been considered 100% of viability)."}, "[1]": {"system": "Mouse ear fibroblasts (MearF)", "experiment": "MTT viability of Doxorubicin-induced senescent and non-senescent murine ear fibroblasts", "assay_type": "cell-based, C57BL/6J mice", "details": "for EC50: Mus musculus, Fibroblast", "description": "as §1, §2\nMurine ear fibroblasts (MearFs) were obtained from C57BL/6J mice maintained in the INRCA \"Specific Pathogen Free\" (SPF) animal facility. The ear biopsies (2 mm radius) were obtained with a dedicated puncher, and cells recovered as previously described (Malavolta et al. 2022). Cells were seeded at a density of 5000/cm^2 in T75 flasks (Corning Costar, Sigma Aldrich, St. Louis, MO, USA) and maintained at 37°C in a 95% humidified incubator with 5% CO2. Culture was carried out in RPMI (Euroclone, Milano, Italy) supplemented with 10% Fetal Calf Serum (FCS, Sigma-Aldrich, St. Louis, MO, USA), 2mM L-Glutamine, 100 U/mL penicillin and […] streptomycin (all from Sigma- Aldrich, St. Louis, MO, USA). At approximately 80% confluence, the cells were detached from the plate by incubation with trypsin-EDTA (Sigma-Aldrich, St. Louis, MO, USA) for 5 min at 37 °C and re-plated. For Doxorubicin-induced senescence, cells were seeded in a 96-well plate at a 5000 cells/cm2 density. MSC cells were treated with 100 nM Doxorubicin (DOX) for 24 h and then maintained with medium for 4 days; HUVECs were treated with 50 nM DOX for 24 h and then maintained with medium for 4 days. MearFs were induced to senescence by continuous exposure (5 days) to 75 nM DOX. […]\nas §3"}, "IMR90 cells": {"system": "IMR90 cells", "experiment": "SA-β-galactosidase colorimetric assay on senescent IMR90", "assay_type": "cell-based, Homo sapiens", "procedure": "Previously treated cells were fixed according to the protocols established by the supplier (Cell Signaling). The images were acquired using an optical microscope (Leica) with 5× and 10× magnification (MAG) or the phase microscopy EVOS XL Core at 10× MAG and analyzed using the ImageJ software. The mean signal intensity was then normalized for the total number of cells.\nβ-galactosidase colorimetric assay. For cell cultures: Previously treated cells were fixed with the fixative solution for 10 min at RT according to the protocols established by the supplier (Senescence β-Galactosidase Staining Kit, #9860S, Cell Signaling, Danvers, MA, USA) Cells were then incubated with the substrate, X-gal, in a solution at pH 6, at 37°C, overnight (16 h) (Itahana et al. 2007). The images were acquired using an optical microscope (Leica, Wetzlar, Germany) with 5 and 10X magnification or the phase microscopy EVOS XL Core at 10X magnification. The images were analyzed using the ImageJ software, quantifying the colorimetric signal emitted by each cell. The mean signal intensity was then normalized for the total number of cells."}, "[2]": {"details": "DNA damage (Doxorubicin), MTT, read-out: EC50 senescent cells"}, "[3]": {"details": "MTT, read-out: EC50 proliferating cells"}},
  "note": "Like-named read-outs stand apart in the source and are kept apart here.",
  "data": [
    {"smiles": "Cc1ccccc1-n1c(=O)n(Cc2ccccc2)c(=O)c2[nH]cnc21", "note": "[Compound K5, 1-benzyl-3-(2-methylphenyl)-7H-purine-2,6-dione]", "values": [
      {"measurement": "Cytochrome C / mitochondria colocalization, Overlap R (OR)", "setting": "MCF7 cells; TAM + Vehicle OR = 0.978", "result": 0.896},
      {"measurement": "Cytochrome C / mitochondria colocalization, Pearson's Rr (PRr)", "setting": "MCF7 cells; TAM + Vehicle PRr = 0.961", "result": 0.810},
      {"measurement": "Senolytic evidence (no, partly/yes)", "setting": "HUVEC; DNA damage (Doxorubicin)", "result": "No"},
      {"measurement": "EC50", "setting": "HUVEC; [2]", "result": "> 500", "unit": "µM"},
      {"measurement": "EC50", "setting": "HUVEC; [3]", "result": "> 500", "unit": "µM"},
      {"measurement": "difference in vitality, DOXO-induced senescent vs non-senescent proliferating cells", "setting": "HUVEC; MTT", "result": "no discernible difference"},
      {"measurement": "Senolytic evidence (no, partly/yes)", "setting": "[1]; DNA damage (Doxorubicin)", "result": "No"},
      {"measurement": "difference in vitality, DOXO-induced senescent vs non-senescent proliferating cells", "setting": "[1]; MTT", "result": "no discernible difference"},
      {"measurement": "EC50", "setting": "[1]; [2]", "result": "> 500", "unit": "µM"},
      {"measurement": "EC50", "setting": "[1]; [3]", "result": "> 500", "unit": "µM"},
      {"measurement": "reduced SA-β-gal+ cells", "setting": "IMR90 cells", "result": 20, "unit": "%"}
    ]}
  ]
}
